Source: PubChem BioAssay (NCI)
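All cell lines were grown in 96-well plates and treated with compound for 48 hours. GI50 marks 50% less growth. Definition used: TGI = concentration required for complete inhibition of growth.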

Legend:
Experiment in all cases: NCI-60 cell line screen, 48 h
[1] = system: SNB-19 CNS
[2] = system: NCI-H23 lung
[3] = system: IGROV1 ovarian
[4] = system: SN12C renal
[5] = system: SK-MEL-28 melanoma
[6] = system: NCI-H522 lung
[7] = system: MDA-MB-435
[8] = system: CAKI-1 renal
[9] = system: OVCAR-8 ovarian
[10] = system: HL-60(TB) leukemia

SMILES | GI50 [1] [µM] | TGI [1] [µM] | GI50 [2] [µM] | TGI [2] [µM] | GI50 [3] [µM] | TGI [3] [µM] | GI50 [4] [µM] | TGI [4] [µM] | GI50 [5] [µM] | TGI [5] [µM] | GI50 [6] [µM] | TGI [6] [µM] | GI50 [7] [µM] | TGI [7] [µM] | GI50 [8] [µM] | TGI [8] [µM] | GI50 [9] [µM] | TGI [9] [µM] | GI50 [10] [µM] | TGI [10] [µM]
Nc1n[nH]c2cc(F)c([C@@H]3Nc4c(F)cc5[nH]ncc5c4[C@H]4C5CCC(C5)[C@@H]34)cc12 (stereo not given in full) | 0.134 | 14.9 | 0.158 | 5.76 | 0.13 | 5.04 | 0.187 | 9.46 | 3.75 | 13.4 | 0.0932 | 2.22 | 0.0727 | 0.195 | 0.137 | 3.38 | 0.136 | 15.2 | 0.1 | 0.317
C=C(C)[C@@H]1CC[C@]2(COC(=O)c3ccccc3C(=O)O)CC[C@]3(C)[C@H](CC[C@@H]4[C@@]5(C)CC[C@H](OC(=O)c6ccccc6C(=O)O)C(C)(C)[C@@H]5CC[C@]43C)[C@@H]12 | 23.2 | > 100 | 42.7 | > 100 | 33.2 | > 100 | 60.8 | > 100 | 95.5 | > 100 | 22.8 | 96.9 | 34.6 | > 100 | 18.6 | 85.2 | 42.6 | > 100 | > 100 | > 100
CCCCc1n(Cc2ccc3ccccc3n2)cc[n+]1Cc1ccc2ccccc2c1 | 0.605 | 2.12 | 0.508 | 3.98 | 0.731 | 2.38 | 0.685 | 2.21 | 0.798 | 2.59 | 0.58 | 2.18 | 0.661 | 1.9 | 1.62 | 3.64 | 1.03 | 3.17 | 0.251 | 0.755
COc1ccccc1CNC(=O)/C=C/c1ccc(O)c(O)c1 | 48.2 | > 100 | 77.6 | > 100 | 22.9 | > 100 | 68.6 | > 100 | 89 | > 100 | 22.7 | > 100 | 58.3 | > 100 | 30.3 | > 100 | 75.7 | > 100 | 45.2 | > 100
N#Cc1cc2c(=S)[nH]c(=S)[nH]c2nc1SCc1ccccc1 | > 100 | > 100 | 32 | > 100 | 55.8 | > 100 | 22.7 | > 100 | 69.7 | > 100 | > 100 | > 100 | 34.8 | > 100 | 10.1 | 76.8 | 58.1 | > 100 | 30.4 | 77.4
O=C(Oc1c(Cl)c(Cl)c(Cl)c(Cl)c1Cl)C1CCCN1C(=O)OCc1ccccc1 (stereo not given) | 3.23 | 13.2 | 3.17 | 10.1 | 4 | 22 | 3.24 | 12.5 | 7.45 | 22.1 | 2.47 | 6.84 | 4.11 | 16.6 | 2.8 | 8.52 | 3.43 | 15.9 | 2.42 | 6.09
CCC1C[N+]2=C(c3cc(OC)c(OC)cc3CC2)c2c1cc1n2CCc2cc(OC)c(OC)cc2-1 (stereo not given) | 2.75 | 15.7 | 2.77 | 18.7 | 5.62 | 53.6 | 1.93 | 11.8 | 1.93 | 10.1 | 1.81 | 13.9 | 1.62 | 6.09 | 20.6 | 65.7 | 2.58 | 82.1 | 2.47 | 10.1
COC(=O)[C@]12CC[C@@H](C)[C@H](C)[C@@H]1C1=CC[C@@H]3[C@@]4(C)C(C=O)=C[C@@](C)(COC(=O)c5ccco5)C4=CC[C@@]3(C)[C@]1(C)CC2 | 5.12 | > 100 | 3.25 | 25.7 | 4.06 | 24.3 | 4.04 | > 100 | 0.053 | 3.01 | 3.31 | 10.9 | 0.0663 | 2.96 | 3.32 | 25.2 | 3.67 | 15.9 | 2.85 | 5.72
COC(=O)C(Br)(C(=O)OC)C(Br)C(Br)C(Br)c1ccccc1 (stereo not given) | 14.9 | 28.2 | 5.78 | 13.9 | 1.06 | 3.45 | 2.16 | 5.3 | 2.12 | 4.99 | 0.573 | 1.53 | 2.48 | 7.36 | 1.76 | 3.73 | 3.03 | 8.15 | 2.09 | 6.03
COc1ccc(-n2nc(C(=O)NCC(=O)Nc3nc4cc(OC)ccc4s3)c3ccccc3c2=O)cc1 | 1.84 | 6.07 | 1.32 | 9 | 1.18 | > 25.3 | 3.45 | > 40.7 | 0.631 | 2.3 | 1.69 | 7.99 | 0.641 | 14.3 | 0.366 | 2.99 | 0.533 | 2 | > 100 | > 100
COc1cc2c3c(n(CCCN=[N+]=[N-])c(=O)c2cc1OC)-c1ccc(NC(C)=O)cc1C3=O | > 50 | > 50 | > 50 | > 50 | 47.3 | > 50 | > 50 | > 50 | > 50 | > 50 | > 50 | > 50 | > 50 | > 50 | 8.39 | > 50 | > 50 | > 50 | 15 | > 50
COc1ccc2cn3c4ccc(O)cc4[nH]c(=O)c3c2c1 | 0.206 | 18.7 | 0.402 | 15.7 | 0.277 | 17.3 | 0.267 | 16.2 | 0.0742 | 17.3 | 0.031 | 1.05 | 0.0248 | 0.0692 | 0.179 | 17 | 0.302 | 18.1 | 0.111 | 13
CN1CCC(n2cnc(-c3ccc(F)cc3)c2-c2ccnc(Nc3ccccc3)n2)CC1 | 16.1 | > 25 | 16.3 | > 25 | 3.04 | > 13.1 | 7.09 | > 25 | 5.19 | 11 | 5.73 | > 15.7 | 3.64 | 11.9 | 1.79 | > 15.3 | 8.86 | > 25 | 9.65 | > 23.2
